The source of these data is patent US20160129003A1, “Pharmaceutical Combinations” (Novartis AG, priority 2013, published 2016).

Assay [1] has as its system primary human lung cancer LUF1656 xenograft. In kind it is in vivo. The conditions noted are these: PO, QD × 21 Days; for T/C (%): Day 21; for Tumor Size (mm^3) at Day 21 of Treatment: Mean ± SEM. The protocol: The in-vivo antitumor activity of the phosphatidylinositol-3-kinase inhibitor compound COMPOUND B in combination with either the anaplastic lymphoma kinase inhibitor COMPOUND D or crizotinib is evaluated in the treatment of subcutaneous primary human lung cancer LUF1656 xenograft models in nu/nu mice.
Experiments are performed with female Mus Musculus nu/nu mice (Vital River Laboratories, China) approximately 7-8 weeks of age and 19-24 g body weight at treatment start. All animals are housed in laminar flow rooms at constant temperature (approximately 20-26° C.) and humidity (approximately 40-70%) with 4 or 5 animals in each cage. All animals have free access to irradiation sterilized dry granule food and sterile drinking water. Animals are divided into groups of 10 animals per group.
COMPOUND B in form of its monohydrochloride salt (Novartis) is obtained as a powder and stored at −20° C. 323.3 mg of COMPOUND B monohydrochoride (equivalent to 294 mg of free base) is formulated in 21 ml of 1% Tween 80 and 21 ml 1% methylcellulose (M-0512). COMPOUND B is first sonicated in the 1% Tween 80 and then mixed with the 1% methylcellulose and then stirred for 1 hour and sonicated for 5 minutes to formulate a solution having a COMPOUND B concentration of 7 mg/ml. For this experiment, the COMPOUND B monohydrochloride salt is referred to as “COMPOUND B”.
(§1) COMPOUND D in the form of its salt (Novartis) is obtained as a powder and stored at −20° C. 388 mg of COMPOUND D salt (equivalents to 330 mg of free base) is suspended in 33 ml of 0.5% methylcellulose (M-0512) and 0.5% Tween, is sonicated and then is vortexed to formulate a solution having a COMPOUND D concentration of 10 mg/ml. Additionally, 11 ml of this 10 mg/ml concentration solution is diluted with 11 ml 0.5% methylcellulose and 0.5% Tween 80 and vortexted to form a second solution having a COMPOUND D concentration of 5 mg/ml. For this experiment, the COMPOUND D salt is referred to as “COMPOUND D”.
Crizotinib is obtained as a powder and stored at −20° C. 220 mg of crizotinib is suspended in 22 ml 0.5% methylcellulose (MC) and sonicated to form a solution having a crizotinib concentration of 10 mg/ml. This solution can be stored at 4° C. for 1 week and protected from light.
Tumor fragments from stock mice inoculated with LUF1656 primary human lung cancer cells (Crown Bio, China) are harvested and used for inoculation into the nu/nu mice. Each mouse is inoculated subcutaneously at the right flank with one tumor fragment (2-3 mm in diameter) for tumor development. The treatments are started when mean tumor size reach approximately 135 mm^3. Animals are routinely monitored and body weight measured twice weekly. Death and observed clinical signs are recorded on the basis of the number of animals within each subset. Animals observed to be in a continuing deteriorating condition or for which the tumor size of individual animal exceeds 1/10 of the body weight are euthanized prior to death or before comatose.
Tumor size is measured twice weekly in two dimensions using a caliper and the volume is expressed in mm^3 using the formula: V=0.5 a×b^2, wherein a and b are the long and short diameters of the tumor respectively. The tumor size is then used for calculation of both T-C and T/C values. T-C is calculated with T as the time (days) required for the mean tumor size of the treatment group to reach a predetermined size (e.g., 400 mm^3) and C is the time (in days) for the mean tumor size of the control group to reach the same size. T/C value (in percent is an indication of the anti-tumor effectiveness; T and C are the mean volume of the treated and control groups, respectively, on a given day.
Summary statistics are provided for the tumor volume of each group at each time point.

Assay [2] concerns primary human lung cancer LU1656 xenograft. Kind of assay: In-vivo antitumor activity, subcutaneous LU1656 xenograft, first and second phase (Example 3). The conditions noted are these: for T-C (days) at 500 mm^3 / T/C (%) / Tumor Size (mm^3) at Day 50 Post Tumor Implantation / Tumor Size (mm^3) at Day 61 Post Tumor Implantation: p.o.; for Tumor Size (mm^3) at Day 50 Post Tumor Implantation / Tumor Size (mm^3) at Day 61 Post Tumor Implantation: Mean ± SEM. The procedure:
The in-vivo antitumor activity […] of the phosphatidylinositol-3-kinase inhibitor compound COMPOUND B in combination with either the anaplastic lymphoma kinase inhibitor COMPOUND D or crizotinib and (b) of the phosphatidylinositol-3-kinase inhibitor compound COMPOUND C in combination with either the anaplastic lymphoma kinase inhibitor COMPOUND D or crizotinib is evaluated in the treatment of subcutaneous primary human lung cancer LU1656 xenograft models in nu/nu mice.
Experiments are performed with female Mus Musculus nu/nu mice (Vital River Laboratories, China) approximately 7-8 weeks of age and 19-24 g body weight at treatment start. All animals are housed in laminar flow rooms at constant temperature (approximately 20-26° C.) and humidity (approximately 40-70%) with 4 or 5 animals in each cage. All animals have free access to irradiation sterilized dry granule food and sterile drinking water.
Animals are divided into 9 groups.
COMPOUND B in form of its monohydrochloride salt (Novartis) is obtained as a powder and stored at −20° C. 99.1 mg of COMPOUND B monohydrochoride (equivalent to 91 mg of free base) is formulated in 6.5 ml of 1% Tween 80 and 6.5 ml 1% methylcellulose (M-0512). COMPOUND B is first sonicated in the 1% Tween 80 and then mixed with the 1% methylcellulose and then stirred for 1 hour and sonicated for 5 minutes to formulate a solution having a COMPOUND B concentration of 7 mg/ml. For this experiment, the COMPOUND B monohydrochloride salt is referred to as “COMPOUND B”.
COMPOUND C is obtained as a powder and stored at 4° C. A vehicle is formulated by dissolving 2 g of CMC sodium salt powder low density in 198 ml of sterile water, mixing using a magnetic beater and heating (about 50° C.), adding 1 ml Tween 80, adjusting the pH to 7.6 using NaOh/HCl, and completing the volume to 200 ml. 84 mg of COMPOUND C is suspended in 3.5 ml of this vehicle and stirred/vortexed until homogenous; another 3.5 ml of this vehicle is added and homogenized; and another 7 ml of this vehicle is added and homogenized. To reduce particle size, this solution is sonicated for 1 hour using a sonication probe while cooling in an ice bath. The solution is having a COMPOUND C concentration of 6 mg/ml.
as §1
COMPOUND C is obtained as a powder and stored at 4° C. A vehicle is formulated by dissolving 2 g of CMC sodium salt powder low density in 198 ml of sterile water, mixing using a magnetic beater and heating (about 50° C.), adding 1 ml Tween 80, adjusting the pH to 7.6 using NaOh/HCl, and completing the volume to 200 ml.

The mark [3] stands for this setting: first phase, Group 4: COMPOUND C 30 mg/kg, QD × 35.
The mark [4] stands for this setting: first phase, Group 3: COMPOUND D 50 mg/kg, QD × 40.
Setting [5] is: second phase, Group 8: COMPOUND D 25 mg/kg, QD × 40.
Setting [6] is: second phase, Group 9: Crizotinib 50 mg/kg, QD × 40.

Like-named read-outs stand apart in the source and are kept apart here.

With `Nc1cc(C(F)(F)F)c(-c2cc(N3CCOCC3)nc(N3CCOCC3)n2)cn1` [COMPOUND B, 5-(2,6-di-morpholin-4-yl-pyrimidin-4-yl)-4-trifluoromethyl-pyridin-2-ylamine], in assay [1] (Group 3: COMPOUND B 35 mg/kg), the “T/C (%)” value came to 30.1% and the “Tumor Size (mm^3) at Day 21 of Treatment” value came to 365.4 mm^3.
With `Cc1nc(NC(=O)N2CCC[C@H]2C(N)=O)sc1-c1ccnc(C(C)(C)C(F)(F)F)c1` [COMPOUND C, (S)-Pyrrolidine-1,2-dicarboxylic acid 2-amide 1-({4-methyl-5-[2-(2,2,2-trifluoro-1,1-dimethyl-ethyl)-pyridin-4-yl]-thiazol-2-yl}-amide)], the “antitumor activity against the LU1656 xenograft model (summary)” value in assay [2] (COMPOUND C at 30 mg/kg as a single agent) is recorded as “significant antitumor activity”. Also, in assay [2] (setting [3]), the “T-C (days) at 500 mm^3” value was 11 days and the “Tumor Size (mm^3) at Day 50 Post Tumor Implantation” value was found to be 752.5 mm^3. In addition, the “T/C (%)” value in assay [2] (first phase, Group 4: COMPOUND C 30 mg/kg, QD × 35, Day 50) is 36.0%.
As to `Cc1cc(Nc2ncc(Cl)c(Nc3ccccc3S(=O)(=O)C(C)C)n2)c(OC(C)C)cc1C1CCNCC1` [COMPOUND D, 5-Chloro-N2-(2-isopropoxy-5-methyl-4-piperidin-4-yl-phenyl)-N4-[2-(propane-2-sulfonyl)-phenyl]-pyrimidine-2,4-diamine], the “T/C (%)” value in assay [1] (Group 7: COMPOUND D 25 mg/kg) is reported as 16.1%; in assay [1] (Group 8: COMPOUND D 50 mg/kg), 17.6%; in assay [2] (first phase, Group 3: COMPOUND D 50 mg/kg, QD × 40, Day 50), 10.4%; in assay [2] (second phase, Group 8: COMPOUND D 25 mg/kg, QD × 40, Day 61) it was 14.6%. Moreover, the results for the “Tumor Size (mm^3) at Day 21 of Treatment” value in assay [1] (Group 7: COMPOUND D 25 mg/kg) and in assay [1] (Group 8: COMPOUND D 50 mg/kg) were 194.9 mm^3 and 213.6 mm^3, respectively. In addition, the “antitumor activity against the LU1656 xenograft model (summary)” value in assay [2] (COMPOUND D at 25 mg/kg as a single agent) and in assay [2] (COMPOUND D at 50 mg/kg as a single agent) was “significant antitumor activity” throughout. The results for the “T-C (days) at 500 mm^3” value in assay [2] (setting [4]) and in assay [2] (setting [5]) were 40 days and 34 days, respectively. For the same molecule, the “Tumor Size (mm^3) at Day 50 Post Tumor Implantation” value in assay [2] (setting [4]) was 218.2 mm^3. Besides, the “Tumor Size (mm^3) at Day 61 Post Tumor Implantation” value in assay [2] (setting [5]) came to 307.4 mm^3. In assay [2] (second phase, COMPOUND D 25 mg/kg monotherapy, Day 64 to Day 82, p<0.05 or p<0.01 at different days), the “antitumor activity compared to Crizotinib (50 mg/kg) monotherapy” value was “significantly improved”.
As for `C[C@@H](Oc1cc(-c2cnn(C3CCNCC3)c2)cnc1N)c1c(Cl)ccc(F)c1Cl` [Crizotinib, reference compound], in assay [1] (Group 6: Crizotinib 50 mg/kg), the “T-C (days) at 400 mm^3” value is recorded as 7 days and the “T/C (%)” value is recorded as 37.1%. Also, the “Tumor Size (mm^3) at Day 21 of Treatment” value in assay [1] (Group 6: Crizotinib 50 mg/kg, from 9 animals' data (one outlier removed)) is 450.8 ± mm^3. In assay [2] (setting [6]), the “T-C (days) at 500 mm^3” value stood at 14 days and the “Tumor Size (mm^3) at Day 61 Post Tumor Implantation” value is 520.4 mm^3. In addition, the “T/C (%)” value in assay [2] (second phase, Group 9: Crizotinib 50 mg/kg, QD × 40, Day 61) is 24.7%. In assay [2] (second phase, Crizotinib 50 mg/kg, PO, QD×40, Day 47 to Day 61 after tumor implantation, p<0.01 or p<0.001 at different days), the “antitumor activity compared with vehicle control” value is listed as “significant antitumor activity”.
